This is an account of results in ChEMBL document CHEMBL3046749, “Synthesis and antimicrobial activity of novel bis-azaphenothiazines” (2013).

In brackets after ≈: the same amount, converted by molar mass. Activity calls are given as the source filed them. The calls are words filed in the database; no cut-off is given here.

Format in all cases: functional
The subject of experiment [1] is Candida albicans. Description: Antifungal activity against Candida albicans MTCC 227 at 100 ug/ml after 28 to 30 hr by cup-plate method. The settings on record: read-out: IZ.
For experiment [2], the system named is Aspergillus flavus. Put plainly: Antifungal activity against Aspergillus flavus MTCC 277 at 100 ug/ml after 28 to 30 hr by cup-plate method. The settings on record: read-out: IZ.
Experiment [3] concerns Aspergillus fumigatus. Description: Antifungal activity against Aspergillus fumigatus MTCC 343 at 100 ug/ml after 28 to 30 hr by cup-plate method. The settings on record: for zone of inhibition at 100 µg/mL: read-out: IZ.
Experiment [4] relates to Aspergillus niger. Put plainly: Antifungal activity against Aspergillus niger MTCC 282 at 100 ug/ml after 28 to 30 hr by cup-plate method. The settings on record: for zone of inhibition at 100 µg/mL: read-out: IZ.
Experiment [5] relates to Candida albicans. Description: Antifungal activity against Candida albicans MTCC 227 after 28 to 30 hr by cup-plate method.
The test system of experiment [6] is Aspergillus fumigatus. Put plainly: Antifungal activity against Aspergillus fumigatus MTCC 343 after 28 to 30 hr by cup-plate method.
Experiment [7] deals with Aspergillus flavus. Description: Antifungal activity against Aspergillus flavus MTCC 277 after 28 to 30 hr by cup-plate method.
Experiment [8] deals with Aspergillus niger. Put plainly: Antifungal activity against Aspergillus niger MTCC 282 after 28 to 30 hr by cup-plate method.
The subject of experiment [9] is Pseudomonas aeruginosa. Put plainly: Antibacterial activity against Pseudomonas aeruginosa MTCC 424 after 16 hr by cup-plate method. The settings on record: MTCC 424, 16 h.
In experiment [10] the test system is Escherichia coli. Description: Antibacterial activity against Escherichia coli MTCC 443 after 16 hr by cup-plate method. The settings on record: MTCC 443, 16 h.
Experiment [11] concerns Staphylococcus epidermidis. Description: Antibacterial activity against Staphylococcus epidermidis MTCC 435 after 16 hr by cup-plate method. The settings on record: MTCC 435, 16 h.
Experiment [12] has as its system Bacillus subtilis. Put plainly: Antibacterial activity against Bacillus subtilis MTCC 441 after 16 hr by cup-plate method. The settings on record: MTCC 441, 16 h.
For experiment [13], the system named is Staphylococcus aureus. Put plainly: Antibacterial activity against Staphylococcus aureus MTCC 096 after 16 hr by cup-plate method. The settings on record: MTCC 096, 16 h.
Experiment [14] deals with Klebsiella pneumoniae. Put plainly: Antibacterial activity against Klebsiella pneumoniae MTCC 432 at 100 ug/ml after 16 to 18 hr by cup-plate method. The settings on record: read-out: IZ.
The next experiment has as its system Salmonella typhi. Put plainly: Antibacterial activity against Salmonella enterica subsp. enterica serovar Typhi MTCC 733 at 100 ug/ml after 16 to 18 hr by cup-plate method. The settings on record: read-out: IZ.
Experiment [15] relates to Pseudomonas aeruginosa. Put plainly: Antibacterial activity against Pseudomonas aeruginosa MTCC 424 at 100 ug/ml after 16 to 18 hr by cup-plate method. The settings on record: read-out: IZ.
For experiment [16], the system named is Escherichia coli. Description: Antibacterial activity against Escherichia coli MTCC 443 at 100 ug/ml after 16 to 18 hr by cup-plate method. The settings on record: read-out: IZ.
The test system of experiment [17] is Staphylococcus epidermidis. Put plainly: Antibacterial activity against Staphylococcus epidermidis MTCC 435 at 100 ug/ml after 16 to 18 hr by cup-plate method. The settings on record: read-out: IZ.
The subject of experiment [18] is Bacillus subtilis. Description: Antibacterial activity against Bacillus subtilis MTCC 441 at 100 ug/ml after 16 to 18 hr by cup-plate method. The settings on record: read-out: IZ.
Experiment [19] concerns Staphylococcus aureus. Description: Antibacterial activity against Staphylococcus aureus MTCC 096 at 100 ug/ml after 16 to 18 hr by cup-plate method. The settings on record: read-out: IZ.
Experiment [20] relates to Klebsiella pneumoniae. Description: Antibacterial activity against Klebsiella pneumoniae MTCC 432 after 16 hr by cup-plate method. The settings on record: MTCC 432, 16 h.

`Clc1ccc(COC(Cn2ccnc2)c2ccc(Cl)cc2Cl)c(Cl)c1` (configuration not stated) [MICONAZOLE]: the zone of inhibition at 100 µg/mL amounted to 19 mm with Candida albicans [1], 17 mm with Aspergillus flavus [2], 15 mm with Aspergillus fumigatus [3] and 18 mm in the experiment with Aspergillus niger [4]. Besides, the minimum inhibitory concentration (MIC) with Candida albicans [5] is 6.25 µg/mL (≈ 15 µM); in the experiment on Aspergillus fumigatus [6] it was 6.25 µg/mL (≈ 15 µM); against Aspergillus flavus [7], 12.5 µg/mL (≈ 30 µM); with Aspergillus niger [8] it was 6.25 µg/mL (≈ 15 µM).
For `C(=C\CN1c2ccccc2Sc2cccnc21)/CN1c2ccccc2Sc2cccnc21`, the MIC against Pseudomonas aeruginosa [9] is 12.5 µg/mL (≈ 27.6 µM); in the experiment with Escherichia coli [10], 50 µg/mL (≈ 110 µM); in experiment [11] it was more than 50 µg/mL; against Bacillus subtilis [12], more than 50 µg/mL; in the experiment on Staphylococcus aureus [13] it was 12.5 µg/mL (≈ 27.6 µM); in the experiment on Candida albicans [5], 12.5 µg/mL (≈ 27.6 µM). Moreover, the minimal inhibitory concentration (MIC) in the experiment on Aspergillus fumigatus [6] came out at 6.25 µg/mL (≈ 13.8 µM); in the experiment with Aspergillus flavus [7], 12.5 µg/mL (≈ 27.6 µM); against Aspergillus niger [8], 12.5 µg/mL (≈ 27.6 µM); in the experiment on Klebsiella pneumoniae [20], 50 µg/mL (≈ 110 µM). Besides, the zone of inhibition at 100 µg/mL with Candida albicans [1] is 12 mm; in the experiment with Aspergillus flavus [2], 12 mm; in the experiment with Aspergillus fumigatus [3] it was 13 mm; in the experiment on Aspergillus niger [4], 12 mm; in the experiment with Klebsiella pneumoniae [14], 11 mm; with Salmonella typhi it was 11 mm. Further, the zone of inhibition at 100 µg/mL in the experiment on Pseudomonas aeruginosa [15] stood at 12 mm; in the experiment on Escherichia coli [16] it was 11 mm; in experiment [17], 10 mm; in the experiment on Bacillus subtilis [18], 10 mm; in the experiment with Staphylococcus aureus [19], 12 mm.
Consider `CC(=O)Nc1ccc(F)cc1Sc1ncccc1[N+](=O)[O-]`, for which the minimal inhibitory concentration (MIC) against Pseudomonas aeruginosa [9] was determined as 6.25 µg/mL (≈ 20.3 µM); in the experiment on Escherichia coli [10], 6.25 µg/mL (≈ 20.3 µM); in [11] it was 25 µg/mL (≈ 81.4 µM); in the experiment with Bacillus subtilis [12], 25 µg/mL (≈ 81.4 µM); against Staphylococcus aureus [13], 12.5 µg/mL (≈ 40.7 µM); in the experiment with Candida albicans [5] it was 6.25 µg/mL (≈ 20.3 µM). Moreover, the MIC in the experiment with Aspergillus fumigatus [6] is 6.25 µg/mL (≈ 20.3 µM); against Aspergillus flavus [7], more than 50 µg/mL; in the experiment with Aspergillus niger [8] it was 6.25 µg/mL (≈ 20.3 µM); with Klebsiella pneumoniae [20], more than 50 µg/mL. Besides, the zone of inhibition at 100 µg/mL is 14 mm in the experiment on Candida albicans [1]; 10 mm with Aspergillus flavus [2]; 16 mm in the experiment with Aspergillus fumigatus [3]; 18 mm in the experiment on Aspergillus niger [4]; 11 mm in the experiment on Klebsiella pneumoniae [14]; 12 mm in the experiment with Salmonella typhi. Further, the zone of inhibition at 100 µg/mL with Pseudomonas aeruginosa [15] amounted to 14 mm; with Escherichia coli [16], 14 mm; in [17], 12 mm; with Bacillus subtilis [18] it was 12 mm; in the experiment on Staphylococcus aureus [19], 13 mm.
As to `Fc1ccc2c(c1)Sc1cccnc1N2CCCCCCN1c2ccc(F)cc2Sc2cccnc21`, the MIC came out at 6.25 µg/mL (≈ 12.1 µM) against Pseudomonas aeruginosa [9]; 12.5 µg/mL (≈ 24.1 µM) with Escherichia coli [10]; 12.5 µg/mL (≈ 24.1 µM) in [11]; 25 µg/mL (≈ 48.2 µM) in the experiment with Bacillus subtilis [12]; 25 µg/mL (≈ 48.2 µM) against Staphylococcus aureus [13]; 6.25 µg/mL (≈ 12.1 µM) against Candida albicans [5]. Also, the MIC is 25 µg/mL (≈ 48.2 µM) against Aspergillus fumigatus [6], 12.5 µg/mL (≈ 24.1 µM) in the experiment on Aspergillus flavus [7], 50 µg/mL (≈ 96.4 µM) in the experiment on Aspergillus niger [8] and 50 µg/mL (≈ 96.4 µM) against Klebsiella pneumoniae [20]. For the same compound, the zone of inhibition at 100 µg/mL in the experiment with Candida albicans [1] came out at 13 mm; with Aspergillus flavus [2], 12 mm; in the experiment with Aspergillus fumigatus [3], 11 mm; with Aspergillus niger [4] it was 10 mm; in the experiment with Klebsiella pneumoniae [14], 11 mm; with Salmonella typhi it was 12 mm. The zone of inhibition at 100 µg/mL was 13 mm in the experiment with Pseudomonas aeruginosa [15]; 12 mm in the experiment with Escherichia coli [16]; 12 mm in experiment [17]; 12 mm in the experiment with Bacillus subtilis [18]; 12 mm with Staphylococcus aureus [19].
For `CC(=O)Nc1ccccc1Sc1ncccc1[N+](=O)[O-]`, the minimal inhibitory concentration (MIC) with Pseudomonas aeruginosa [9] is 12.5 µg/mL (≈ 43.2 µM); with Escherichia coli [10], more than 50 µg/mL; in experiment [11] it was 25 µg/mL (≈ 86.4 µM); against Bacillus subtilis [12] it was 25 µg/mL (≈ 86.4 µM); in the experiment on Staphylococcus aureus [13] it was more than 50 µg/mL; against Candida albicans [5], 12.5 µg/mL (≈ 43.2 µM). The MIC with Aspergillus fumigatus [6] was more than 50 µg/mL; against Aspergillus flavus [7], 12.5 µg/mL (≈ 43.2 µM); in the experiment on Aspergillus niger [8], more than 50 µg/mL; with Klebsiella pneumoniae [20], 50 µg/mL (≈ 173 µM). In addition, the zone of inhibition at 100 µg/mL in the experiment with Candida albicans [1] came to 12 mm; in the experiment on Aspergillus flavus [2] it was 12 mm; with Klebsiella pneumoniae [14] it was 11 mm; with Salmonella typhi, 12 mm; in the experiment with Pseudomonas aeruginosa [15], 12 mm; in the experiment with Escherichia coli [16], 10 mm. Besides, the zone of inhibition at 100 µg/mL is 11 mm in experiment [17], 12 mm in the experiment on Bacillus subtilis [18] and 11 mm in the experiment on Staphylococcus aureus [19]. The “inhibition zone (IZ)” value with Aspergillus fumigatus [3] and in the experiment with Aspergillus niger [4] was “inactive” throughout.

The term MIC denotes the lowest concentration found to suppress growth. Lower therefore signals inhibition by little substance.
